Patent US20040266718A1, “Inhibition of specific histone deacetylase isoforms” (priority 2001, published 2004)
Values belong to the compound of their own block, whether it stands above or below them. d = 2'-deoxy (DNA); m = 2'-O-methyl

Columns and labels:
[1] = test system: Human cancer HCT116 cells; assay: cell cycle arrest by FACS; format: cell-based; details: HCT116, 16 hours; concentration to induce a (G2+M)/S ratio of 2.5
Method: Human cancer HCT116 cells were plated at 2×10^5 per 10-cm dish and were left to attach to the dish overnight in the incubator. Cells were treated with small molecule inhibitors at various concentrations (1 uM and 10 uM, typically, dissolved in DMSO) for 16 hours. Cells were harvested by trypsinization and washed once in 1×PBS (phosphate buffered saline). The cells were resuspended in about 200 ul 1×PBS and were fixed by slowly adding 1 ml 70% ethanol at −20° C. and were left at least overnight at −20° C. Fixed cells were centrifuged at low speed (1,000 rpm) for 5 minutes, and the cell pellets were washed again with 1×PBS. Nucleic acids from fixed cells were incubated in a staining solution (0.1% (w/v) glucose in 1×PBS containing 50 ug/ml propidium iodide) (Sigma-Aldridge, Mississauga, Ontario, CA) and RNase A (final 100 units/ml, (Sigma-Aldridge, Mississauga, Ontario, CA) for at least 30 minutes in the dark at 25° C. DNA content was measured by using a fluorescence-activated cell sorter (FACS) machine. Treatment of cells with all HDAC small molecule inhibitors in Table 2 results in a significant accumulation of cancer cell in G2/M phase of the cell cycle and concomitantly reduce the accumulation of cancer cells in S phase of the cell cycle. The ratio of cells in G2/M phase vs. cells in the S. phase was determined. […]

[2] = test system: human colon cancer HCT116 cells; assay: MTT assay of cell proliferation; format: cell-based; details: HCT-116, 72 hours
Method: Two thousand (2,000) human colon cancer HCT116 cells (ATCC, Manassas, Va. were used in an MTT (3-[4,5-dimethylthiazol-2-yl]-2,5 diphenyl tetrazolium bromide) assay to quantitatively determine cell proliferation and cytotoxicity. Typically, HCT116 cells were plated into each well of the 96-well tissue culture plate and left overnight to attach to the plate. Compounds at various concentrations were added into the culture media (final DMSO concentration 1%) and incubated for 72 hours. MTT solution (obtained from Sigma as powder) was added and incubated with the cells for 4 hours at 37° C. in incubator with 5% CO2. During the incubation, viable cells convert MTT to a water-insoluble formazan dye. Solubilizing buffer (50% N,N-dimethylformamide, 20% SDS, pH 4.7) was added to cells and incubated for overnight at 37C in incubator with 5% CO2. Solubilized dye was quantitated by calorimetric reading at […] using a reference of […]. Optical density values were converted to cell number values by comparison to a standard growth curve for each cell line.

[3] = test system: A549; assay: apoptosis, Cell Death Detection ELISA, A549; format: cell-based, human; details: OSDN
Method: (§1) In order to determine the effect of HDAC OSDNs on cell growth and cell death through apoptosis, A549 or T24 cells, MDAmb231 cells, and HMEC cells (ATCC, Manassas, Va.) were treated with HDAC OSDNs as previously described.
(§2) For the apoptosis study, cells were analyzed using the Cell Death Detection ELISA^Plus kit (Roche Diagnostic GmBH, Mannheim, Germany) according to the manufacturer's directions. Typically, 10,000 cells were plated in 96-well tissue culture dishes for 2 hours before harvest and lysis. Each sample was analyzed in duplicate. ELISA reading was done using a MR700 plate reader (DYNEX Technology, Ashford, Middlesex, England) at 410 nm. The reference was set at 490 nm.

[4] = test system: human HDAC-1 RNA; assay: antisense screen by Northern blot in T24 cells, HDAC-1; format: cell-based; details: 100 nM, 24 hours
Method: (§3) Briefly, human A549 and/or T24 human bladder carcinoma cells were seeded in 10 cm tissue culture dishes one day prior to oligonucleotide treatment. The cell lines were obtained from the American Type Culture Collection (ATCC) (Manassas, Va.) and were grown under the recommended culture conditions. Before the addition of the oligonucleotides, cells were washed with PBS (phosphate buffered saline). Next, lipofectin transfection reagent (GIBCO BRL Mississauga, Ontario, Calif.), at a concentration of 6.25 μg/ml, was added to serum free OPTIMEM medium (GIBCO BRL, Rockville, Md.), which was then added to the cells. The oligonucleotides to be screened were then added directly to the cells (i.e., one oligonucleotide per plate of cells). Mismatched oligonucleotides were used as controls. The same concentration of oligonucleotide (e.g., 50 nM) was used per plate of cells for each oligonucleotide tested.
Cells were harvested, and total RNAs were analyzed by Northern blot analysis. Briefly, total RNA was extracted using RNeasy miniprep columns (QIAGEN). Ten to twenty μg of total RNA was run on a formaldehyde-containing 1% agarose gel with 0.5 M sodium phosphate (pH 7.0) as the buffer system. RNAs were then transferred to nitrocellulose membranes and hybridized with the indicated radiolabeled DNA probes. Autoradiography was performed using conventional procedures.

[5] = test system: cyclin A in Human cancer A549 cells; assay: Western blot of cyclin A in A549 cells; format: cell-based; details: 48 hours, FIG. 16
Method: (§4) Human cancer A549 cells were treated with AS1, AS2 or MM oligo directed human HDAC1 for 48 hours. Total cell lysates were harvested and analyzed by Western blot using antibodies against human HDAC1, cyclin B1, cyclin A and actin (all from Santa Cruz Biotechnology, Inc., Santa Cruz, Calif.). […] (FIG. 16)

[6] = test system: cyclin B1 in Human cancer A549 cells; assay: Western blot of cyclin B1 in A549 cells; format: cell-based; details: 48 hours, FIG. 16
Method: as §4

[7] = test system: HMEC; assay: apoptosis, Cell Death Detection ELISA, HMEC; format: cell-based, human; details: OSDN, normal cells
Method: as §1, §2

[8] = test system: T24; assay: apoptosis, Cell Death Detection ELISA, T24; format: cell-based, human; details: OSDN
Method: as §1, §2

[9] = test system: human HDAC-2 RNA; assay: antisense screen by Northern blot in T24 cells, HDAC-2; format: cell-based; details: screened as above (T24 cells, 100 nM, 24 hours)
Method: Twenty-four phosphorothioate ODNs containing sequences complementary to the 5′ or 3′ UTR of the human HDAC-2 gene (GenBank Accession No. U31814) were screened as above. […] HDAC-2 MM was created as a control; compared to the antisense oligo, it contains a 7-base mismatch.
as §3
(§5) Cells were harvested, and total RNAs were analyzed by Northern blot analysis. Briefly, total RNA was extracted using RNeasy miniprep columns (QIAGEN). […]

[10] = test system: human cancer cells; assay: cell growth and apoptosis of human cancer cells; format: cell-based; details: for growth arrest and apoptosis of human cancer cells: text summary of FIGS. 11-13, Tables 4 and 5
Method: as §1, §2
(§6) Cells were harvested and cell numbers counted by trypan blue exclusion using a hemocytometer. Percentage of inhibition was calculated as (100—AS cell numbers/control cell numbers)%.

[11] = test system: MDAmb231; assay: cell growth analysis (trypan blue cell count), MDAmb231; format: cell-based, human; details: 50 nM, 72 hours
Method: as §3, §1, §6

[12] = test system: MDAmb231; assay: apoptosis, Cell Death Detection ELISA, MDAmb231; format: cell-based, human; details: OSDN
Method: as §1, §2

[13] = test system: T24; assay: cell growth analysis (trypan blue cell count), T24; format: cell-based, human; details: 50 nM, 72 hours
Method: as §3, §1, §6

[14] = test system: HMEC; assay: cell growth analysis (trypan blue cell count), HMEC; format: cell-based, human; details: 50 nM, 72 hours, normal cells
Method: as §3, §1, §6

[15] = test system: A549; assay: cell growth analysis (trypan blue cell count), A549; format: cell-based, human; details: 50 nM, 72 hours
Method: as §3, §1, §6

[16] = test system: human HDAC-3 RNA; assay: antisense screen by Northern blot in T24 cells, HDAC-3; format: cell-based; details: screened as above (T24 cells, 100 nM, 24 hours)
Method: Twenty-one phosphorothioate ODNs containing sequences complementary to the 5′ or 3′ UTR of the human HDAC-3 gene (GenBank Accession No. AF039703) were screened as above. […] HDAC-3 MM oligonucleotide was created as a control; compared to the antisense oligonucleotide, it contains a 6-base mismatch.
as §3, §5

[17] = test system: human HDAC-4 RNA; assay: antisense screen by Northern blot in T24 cells, HDAC-4; format: cell-based; details: screened as above (T24 cells, 100 nM, 24 hours)
Method: Seventeen phosphorothioate ODNs containing sequences complementary to the 5′ or 3′ UTR of the human HDAC-4 gene (GenBank Accession No. AB006626) were screened as above. […] HDAC-4 MM1 and MM2 oligonucleotides were created as controls; compared to the antisense oligonucleotides, they each contain a 6-base mismatch.
as §3, §5

[18] = test system: human HDAC-5 RNA; assay: antisense screen by Northern blot in T24 cells, HDAC-5; format: cell-based; details: screened as above (T24 cells, 100 nM, 24 hours)
Method: Thirteen phosphorothioate ODNs containing sequences complementary to the 5′ or 3′ untranslated regions of the human HDAC-5 gene (GenBank Accession No. AF039691) were screened as above.
as §3
Cells were harvested, and total RNAs were analyzed by Northern blot analysis. Briefly, total RNA was extracted using RNeasy miniprep columns (QIAGEN). Ten to twenty μg of total RNA was run on a formaldehyde-containing 1% agarose gel with 0.5 M sodium phosphate (pH 7.0) as the buffer system. […]

[19] = test system: human HDAC-6 RNA; assay: antisense screen by Northern blot in T24 cells, HDAC-6; format: cell-based; details: screened as above (T24 cells, 100 nM, 24 hours)
Method: Thirteen phosphorothioate ODNs containing sequences complementary to the 5′ or 3′ untranslated regions of the human HDAC-6 gene (GenBank Accession No. AJ011972) were screened as above. […] HDAC-6 MM oligo was created as a control; compared to the antisense oligo, it contains a 7-base mismatch.
as §3, §5

- EC50 [2]: 3000 nM
Compound: CC(/C=C/C(=O)Nc1ccccc1N)=C\C(C)C(=O)c1ccc(N(C)C)cc1 (stereo not drawn) [Compound 1]
- Cell Cycle Arrest EC [1]: 2 µM

Compound: HDAC-1 AS1: antisense oligonucleotide to human HDAC1, 5′-GAAACGTGAGGGACTCAGCA-3′ (SEQ ID NO:17) (chemistry not given here)
- Apoptosis After 48 Hour Treatment A549 [3]: + (2-3X fold)
- antisense activity to human HDAC-1 (RNA expression, Northern blot) [4]: antisense activity
- expression of cyclin A [5]: repress expression
- expression of cyclin B1 [6]: repress expression
- Apoptosis After 48 Hour Treatment HMEC [7]: − (< = 2x fold over non-specific background)
- Apoptosis After 48 Hour Treatment T24 [8]: − (< = 2x fold over non-specific background)

Compound: HDAC-1 AS2: antisense oligonucleotide to human HDAC1, 5′-GGAAGCCAGAGCTGGAGAGG-3′ (SEQ ID NO:18) (chemistry not given here)
- antisense activity to human HDAC-1 (RNA expression, Northern blot) [4]: antisense activity
- expression of cyclin A [5]: repress expression
- expression of cyclin B1 [6]: repress expression

Compound: HDAC-2 AS: antisense oligonucleotide to human HDAC2, 5′-GCTGAGCTGTTCTGATTTGG-3′ (SEQ ID NO:20) (chemistry not given here)
- antisense activity to human HDAC-2 (RNA expression, Northern blot) [9]: antisense activity
- Apoptosis After 48 Hour Treatment A549 [3]: − (< = 2x fold over non-specific background)
- cancer cell growth inhibition [10]: minimal effect
- Growth Inhibition (AS vs. MM) MDAmb231 [11]: − (no inhibition)
- Apoptosis After 48 Hour Treatment HMEC [7]: − (< = 2x fold over non-specific background)
- Apoptosis After 48 Hour Treatment MDAmb231 [12]: − (< = 2x fold over non-specific background)
- Apoptosis After 48 Hour Treatment T24 [8]: − (< = 2x fold over non-specific background)

Compound: HDAC-3 AS: antisense oligonucleotide to human HDAC3, 5′-CGCTTTCCTTGTCATTGACA-3′ (SEQ ID NO:22) (chemistry not given here)
- Growth Inhibition (AS vs. MM) T24 [13]: − (no inhibition)
- Apoptosis After 48 Hour Treatment A549 [3]: − (< = 2x fold over non-specific background)
- Growth Inhibition (AS vs. MM) HMEC [14]: − (no inhibition)
- growth arrest and apoptosis of human cancer cells [10]: no effect
- Growth Inhibition (AS vs. MM) A549 [15]: − (no inhibition)
- Growth Inhibition (AS vs. MM) MDAmb231 [11]: − (no inhibition)
- Apoptosis After 48 Hour Treatment HMEC [7]: − (< = 2x fold over non-specific background)
- Apoptosis After 48 Hour Treatment MDAmb231 [12]: − (< = 2x fold over non-specific background)
- Apoptosis After 48 Hour Treatment T24 [8]: − (< = 2x fold over non-specific background)
- antisense activity to human HDAC-3 (RNA expression, Northern blot) [16]: antisense activity

Compound: HDAC-4 AS2: antisense oligonucleotide to human HDAC4, 5′-TACAGTCCATGCAACCTCCA-3′ (SEQ ID NO:26) (sugars from the 5' end m4 d12 m4, all phosphorothioate, methylation of C and T or U not given here)
- antisense activity to human HDAC-4 (RNA expression, Northern blot) [17]: antisense activity

Compound: HDAC-5 AS: antisense oligonucleotide to human HDAC5, 5′-CTTCGGTCTCACCTGCTTGG-3′ (SEQ ID NO:28) (sugars from the 5' end m4 d12 m4, all phosphorothioate, methylation of C and T or U not given here)
- antisense activity to human HDAC-5 (RNA expression, Northern blot) [18]: antisense activity

Compound: HDAC-6 AS: antisense oligonucleotide to human HDAC6, 5′-CAGGCTGGAATGAGCTACAG-3′ (SEQ ID NO:29) (chemistry not given here)
- Growth Inhibition (AS vs. MM) T24 [13]: − (no inhibition)
- Apoptosis After 48 Hour Treatment A549 [3]: − (< = 2x fold over non-specific background)
- Growth Inhibition (AS vs. MM) HMEC [14]: − (no inhibition)
- growth arrest and apoptosis of human cancer cells [10]: no effect
- Growth Inhibition (AS vs. MM) A549 [15]: − (no inhibition)
- antisense activity to human HDAC-6 (RNA expression, Northern blot) [19]: antisense activity
- Apoptosis After 48 Hour Treatment HMEC [7]: − (< = 2x fold over non-specific background)
- Apoptosis After 48 Hour Treatment MDAmb231 [12]: − (< = 2x fold over non-specific background)
- Apoptosis After 48 Hour Treatment T24 [8]: − (< = 2x fold over non-specific background)
